ChEMBL document CHEMBL1201862, “PubChem BioAssay data set” (2004)
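48-hour exposure; five concentrations; linearly interpolated endpoints. At the GI50, growth is halved.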 Active and inactive are the calls of the source. Rule as the data show it: active = GI50 up to about 1.1 µM and inactive = higher.

Tests used:
Assay in all cases: NCI-60 cell line screen, 48 h
[1] = test system: CCRF-CEM
[2] = test system: NCI-H23
[3] = test system: BT-549
[4] = test system: SR
[5] = test system: RXF 393
[6] = test system: DU-145
[7] = test system: SK-MEL-5
[8] = test system: NCI-H226
[9] = test system: HOP-92
[10] = test system: OVCAR-8
[11] = test system: U-251
[12] = test system: SF-268
[13] = test system: MDA-MB-435
[14] = test system: ACHN
[15] = test system: KM12
[16] = test system: SW-620
[17] = test system: A498
[18] = test system: SK-OV-3
[19] = test system: CAKI-1

Measured: GI50

CCOC(=O)c1c(NCc2ccccc2)n(-c2ccccc2)c(=S)n(-c2ccccc2)c1=O
inactive: [1] 29.4 µM | [2] > 100 µM | [3] 36.9 µM | [4] 33.7 µM | [5] > 100 µM | [6] > 100 µM | [7] 94.6 µM | [8] > 100 µM | [9] > 100 µM | [10] > 100 µM | [11] > 100 µM | [12] > 100 µM | [13] > 100 µM | [14] > 100 µM | [15] > 100 µM | [16] > 100 µM

COC(=O)c1cc(NC(=O)Cn2c3ccccc3c3ccccc32)cn1C
inactive: [1] 39.3 µM | [2] 39.3 µM | [3] 24.9 µM | [4] 49.5 µM | [5] 39.1 µM | [6] > 100 µM | [17] > 100 µM | [7] 65.8 µM | [8] 21.6 µM | [18] 25.6 µM | [19] 84.5 µM | [10] 30.1 µM | [11] 26.4 µM | [12] 30.6 µM | [13] 78.5 µM | [14] 33.7 µM | [15] 38.2 µM | [16] > 100 µM

CCOC(=O)C1=C(C)OC2(O)C=CC(O)=C3C(=O)N(c4ccccc4)C(=O)C312 (stereo not given)
inactive: [2] 40.8 µM | [3] 31.6 µM | [4] 18.9 µM | [5] 26.4 µM | [6] 36.7 µM | [8] 34.2 µM | [18] 90.8 µM | [9] 21 µM | [19] 48.8 µM | [10] 52 µM | [11] 35.7 µM | [12] 38.7 µM | [13] 37.8 µM | [14] 31.8 µM | [15] 38.6 µM

Nn1c(CCCCCCCCc2nnc(-c3c(O)ccc4ccccc34)n2N)nnc1-c1c(O)ccc2ccccc12
inactive: [2] > 100 µM | [3] > 100 µM | [4] > 100 µM | [6] > 100 µM | [7] > 100 µM | [8] > 100 µM | [18] > 100 µM | [9] > 100 µM | [19] > 100 µM | [10] > 100 µM | [11] > 100 µM | [12] > 100 µM | [13] > 100 µM | [14] > 100 µM | [15] > 100 µM | [16] > 100 µM

CC1(C)C2CCC1C(=O)[C@@]1(C=CC(=O)CC1)C2 (stereo not given in full)
inactive: [1] > 100 µM | [2] > 100 µM | [3] > 100 µM | [4] > 100 µM | [5] > 100 µM | [6] > 100 µM | [7] > 100 µM | [8] > 100 µM | [18] > 100 µM | [9] > 100 µM | [10] > 100 µM | [11] > 100 µM | [12] > 100 µM | [13] > 100 µM | [14] > 100 µM | [15] > 100 µM | [16] > 100 µM

Cc1nn(C(=O)c2ccc(Cl)cc2)c2c1C(c1ccccc1O)SC(=N)N2 (stereo not given)
inactive: [1] > 10 µM | [2] > 10 µM | [3] > 10 µM | [4] > 10 µM | [5] > 10 µM | [6] > 10 µM | [7] > 10 µM | [8] > 10 µM | [18] > 10 µM | [9] > 10 µM | [19] > 10 µM | [10] > 10 µM | [11] > 10 µM | [12] > 10 µM | [13] > 10 µM | [14] > 10 µM | [15] > 10 µM | [16] > 10 µM

Cc1nn(C(=O)c2ccncc2)c2c1C(c1cccc([N+](=O)[O-])c1)SC(=N)N2 (stereo not given)
inactive: [1] > 10 µM | [2] > 10 µM | [3] > 10 µM | [4] > 10 µM | [5] > 10 µM | [6] > 10 µM | [7] > 10 µM | [8] > 10 µM | [18] > 10 µM | [9] > 10 µM | [19] > 10 µM | [10] > 10 µM | [11] > 10 µM | [12] > 10 µM | [13] > 10 µM | [14] > 10 µM | [15] > 10 µM | [16] > 10 µM

CC(C)=NOC(=O)OC[C@H]1O[C@@H](n2cnc3c(N)ncnc32)C(O)C1O (stereo not given in full)
inactive: [1] > 100 µM | [2] > 100 µM | [3] > 100 µM | [4] > 100 µM | [5] > 100 µM | [6] > 100 µM | [17] > 100 µM | [7] > 100 µM | [8] > 100 µM | [18] > 100 µM | [10] > 100 µM | [11] > 100 µM | [12] > 100 µM | [13] 82.6 µM | [14] > 100 µM | [15] > 100 µM | [16] 89.3 µM
